The values below are quoted from earlier work in US20060247203A1, “Freeze-dried preparation containing methylcobalamin and process for producing the same” (EISAI CO., LTD., priority 2003, published 2006).

The data set relates to patients with amyotrophic lateral sclerosis. The settings on record: ALS patients; methylcobalamin 15 to 50 mg/once daily via intramuscular injection.

With `C/C1=C2/[N-][C@H]([C@H](CC(N)=O)[C@@]2(C)CCC(=O)NC[C@@H](C)OP(=O)([O-])O[C@H]2[C@@H](O)[C@@H](n3cnc4cc(C)c(C)cc43)O[C@@H]2CO)[C@]2(C)N=C(/C(C)=C3N=C(/C=C4N=C1[C@@H](CCC(N)=O)C\4(C)C)[C@@H](CCC(N)=O)[C@]\3(C)CC(N)=O)[C@@H](CCC(N)=O)[C@]2(C)CC(N)=O.[CH3-].[Co+3]` [methylcobalamin], the “magnitude of compound muscle action potential” value was “significant increase” and the subjective muscle strength result is given as “dose-dependent improvement”.
